From article PMC7158045 (BMC Plant Biology, 2020)

How the values were obtained:
Assay in all cases: biochemical
ZmDRIK1-R187-P492 = molecular target: T1, ZmDRIK1-R187-P492 (Zea mays, UniProt C0P4K9); conditions: read-out: dTm B, DSF, Boltzmann fit, 0.1% DMSO
T1 construct: kinase domain, R187-P492
T1 sequence (C0P4K9 1-514): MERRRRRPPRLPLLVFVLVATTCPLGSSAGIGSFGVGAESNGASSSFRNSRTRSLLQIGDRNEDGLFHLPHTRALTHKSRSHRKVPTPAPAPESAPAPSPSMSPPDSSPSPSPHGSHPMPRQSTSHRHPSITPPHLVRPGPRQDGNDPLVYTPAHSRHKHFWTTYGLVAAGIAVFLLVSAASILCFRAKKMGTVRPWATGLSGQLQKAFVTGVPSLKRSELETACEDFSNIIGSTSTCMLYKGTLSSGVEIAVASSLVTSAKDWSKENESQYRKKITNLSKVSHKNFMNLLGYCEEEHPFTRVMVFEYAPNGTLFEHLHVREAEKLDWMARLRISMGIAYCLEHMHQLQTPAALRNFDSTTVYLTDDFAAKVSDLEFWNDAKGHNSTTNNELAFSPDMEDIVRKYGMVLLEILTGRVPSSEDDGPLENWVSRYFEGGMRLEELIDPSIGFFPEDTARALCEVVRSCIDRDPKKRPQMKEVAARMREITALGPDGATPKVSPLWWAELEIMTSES

[1] = molecular target: T2, ZmDRIK1 (DROUGHT RESPONSIVE INACTIVE KINASE 1), kinase domain (Zea mays, UniProt C0P4K9); conditions: read-out: dTm B, sheet ZmDRIK1-R187-S514;; DSF, Boltzmann fit, 0.1% DMSO
T2 construct: gene ZEAMMB73_Zm00001d028770; ZmDRIK1-KD R187-S514 (kinase domain)
T2 sequence (C0P4K9 187-514): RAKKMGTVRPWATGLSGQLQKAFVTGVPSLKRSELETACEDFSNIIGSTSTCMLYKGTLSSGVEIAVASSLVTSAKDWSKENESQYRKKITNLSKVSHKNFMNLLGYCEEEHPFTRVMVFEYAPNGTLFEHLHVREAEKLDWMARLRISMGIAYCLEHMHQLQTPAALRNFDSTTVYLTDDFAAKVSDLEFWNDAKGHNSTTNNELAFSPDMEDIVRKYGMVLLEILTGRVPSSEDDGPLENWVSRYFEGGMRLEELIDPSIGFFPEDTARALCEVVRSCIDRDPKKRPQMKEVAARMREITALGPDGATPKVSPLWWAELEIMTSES

ZmDRIK1-K217-S514 = molecular target: T3, ZmDRIK1-K217-S514 (Zea mays, UniProt C0P4K9); conditions: read-out: dTm B, sheet ZmDRIK1-K217-S514;; DSF, Boltzmann fit, 0.1% DMSO
T3 construct: kinase domain, K217-S514
T3 sequence (C0P4K9 1-514): T1 sequence (C0P4K9 1-514)

ZmDRIK1-K217-P492 = molecular target: T4, ZmDRIK1-K217-P492 (Zea mays, UniProt C0P4K9); conditions: read-out: dTm B, sheet ZmDRIK1-K217-P492;; DSF, Boltzmann fit, 0.1% DMSO
T4 construct: kinase domain, K217-P492
T4 sequence (C0P4K9 1-514): T1 sequence (C0P4K9 1-514)

ΔTm at 10 µM (ZmDRIK1-R187-P492)	ΔTm at 10 µM [1]	ΔTm at 10 µM (ZmDRIK1-K217-S514)	ΔTm at 10 µM (ZmDRIK1-K217-P492)	Compound
-0.366 °C	-1.17 °C	-0.426 °C	-1.19 °C	C[C@@H]1CN(CC(=O)Nc2ccc3c(c2)Cc2cccc(-c4cc(=O)cc(N5CCOCC5)o4)c2S3)C[C@H](C)O1 [KU-60019]
-0.299 °C	-0.516 °C	-0.302 °C	-1.21 °C	COc1ccc(-c2ccc3c(N4CCOCC4)nc(N4C[C@@H](C)O[C@@H](C)C4)nc3n2)cc1CO [KU-0063794]
-0.0311 °C	-0.807 °C	-0.13 °C	-0.672 °C	O=C(c1ccc(/C=C/c2n[nH]c3ccccc23)cc1)N1CCNCC1 [KW-2449]
-0.338 °C	-0.49 °C	-0.346 °C	-0.496 °C	O=C(Cc1ccc(-c2ccc(OCCN3CCOCC3)cc2)cn1)NCc1ccccc1 [KX2-391]
0.533 °C	-0.172 °C	0.865 °C	0.0733 °C	COc1ccccc1-c1cc(Nc2cccc(CS(N)(=O)=O)c2)ncn1 [LDC000067]
-0.522 °C	-0.744 °C	-0.431 °C	-1.23 °C	Cc1cc(Nc2ncc(Cl)c(Nc3ccccc3S(=O)(=O)C(C)C)n2)c(OC(C)C)cc1C1CCNCC1 [LDK378]
-0.0828 °C	-0.881 °C	-0.184 °C	-0.874 °C	O=c1cc(N2CCOCC2)oc2c(-c3ccccc3)cccc12 [LY294002]
-0.267 °C	-0.95 °C	-0.619 °C	-0.453 °C	CC(C)(C)Cn1c(N)nc2ccc(-c3[nH]c(C(C)(C)C)nc3-c3ccc(F)cc3)nc21 [LY2228820]
-0.548 °C	-0.608 °C	-0.525 °C	-0.992 °C	Cc1cnc(NC(=O)Nc2cc(Br)c(C)cc2OC[C@@H]2CNCCO2)cn1 [LY2603618]
-0.165 °C	-0.894 °C	-0.0976 °C	-0.85 °C	Cc1cc(Nc2cc(CN3CCOCC3)c3nc(C)c(Cc4ccc(Cl)cc4F)n3n2)n[nH]1 [LY2784544]
-0.433 °C	-0.878 °C	-0.201 °C	-0.986 °C	CCN1CCN(Cc2ccc(Nc3ncc(F)c(-c4cc(F)c5nc(C)n(C(C)C)c5c4)n3)nc2)CC1 [LY2835219]
-0.406 °C	-1.04 °C	-0.299 °C	-1.02 °C	COc1cc2nccc(Oc3ccc(NC(=O)NC4CC4)c(Cl)c3)c2cc1C(N)=O [Lenvatinib (E7080)]
-0.414 °C	-0.711 °C	-0.66 °C	-4.15 °C	Cc1ccc(F)c(NC(=O)Nc2ccc(-c3cccc4[nH]nc(N)c34)cc2)c1 [Linifanib (ABT-869)]
-0.242 °C	-0.594 °C	-0.464 °C	-0.577 °C	Cc1c(F)cc(C(=O)NC2CC2)cc1-c1ccc(C(=O)NCC(C)(C)C)cn1 [Losmapimod (GW856553X)]
-0.189 °C	-0.978 °C	-0.461 °C	-1.3 °C	Cn1cnc2c(F)c(Nc3ccc(Br)cc3F)c(C(=O)NOCCO)cc21 [MEK162 (ARRY-162)]
-0.104 °C	-1.02 °C	-0.181 °C	-0.178 °C	NC1(c2ccc(-c3nc4ccn5c(=O)[nH]nc5c4cc3-c3ccccc3)cc2)CCC1 [MK-2206 2HCl]
-0.282 °C	-1.14 °C	-0.299 °C	-0.754 °C	O=C(O)[C@]1(Cc2cccc(Nc3nccs3)n2)CC[C@@H](Oc2cccc(Cl)c2F)CC1 [MK-5108 (VX-689)]

ΔTm at 10 µM (ZmDRIK1-R187-P492)	ΔTm at 10 µM [1]	ΔTm at 10 µM (ZmDRIK1-K217-S514)	ΔTm at 10 µM (ZmDRIK1-K217-P492)	Compound
0.983 °C	0.487 °C	0.891 °C	0.174 °C	O=C(c1cccc(Cl)c1F)N1CCN(Cc2cccc(Nc3nccs3)n2)CC1 [MK-8745]
-0.226 °C	-0.736 °C	-0.293 °C	-0.951 °C	Cn1cc(-c2cnn3c(N)c(Br)c([C@@H]4CCCNC4)nc23)cn1 [MK-8776 (SCH 900776)]
-0.341 °C	-0.958 °C	-0.583 °C	-1.36 °C	O=C(O)c1ccc(Nc2ncc3c(n2)-c2ccc(Cl)cc2C(c2c(F)cccc2F)=NC3)cc1 [MLN8054]
-0.246 °C	-0.818 °C	-0.217 °C	-0.773 °C	Cc1ccc(NC(=O)c2ccc(CN3CCN(C)CC3)cc2)cc1Nc1nc(-c2cccnc2)cs1 [Masitinib (AB1010)]
-0.101 °C	-0.178 °C	-0.233 °C	-0.0433 °C	CNC(=O)c1nn(C)c2c1C(C)(C)Cc1cnc(Nc3ccc(N4CCN(C)CC4)cc3)nc1-2 [Milciclib (PHA-848125)]
-0.24 °C	-0.808 °C	-0.221 °C	-1.01 °C	CC1(C)CNc2cc(NC(=O)c3cccnc3NCc3ccncc3)ccc21 [Motesanib Diphosphate (AMG-706)]
-0.156 °C	-0.964 °C	-0.334 °C	-0.803 °C	FC(F)(F)c1ccc(/C=C/c2nc(COc3ccc(CCCCn4ccnn4)cc3)co2)cc1 [Mubritinib (TAK 165)]
-0.749 °C	-1.15 °C	-0.517 °C	-1.1 °C	CN1CCN(c2ccc(OC(F)(F)F)c(Nc3ncc4c(n3)-c3c(c(C(N)=O)nn3CCO)CC4)c2)CC1 [NMS-P937 (NMS1286937)]
-0.128 °C	-0.461 °C	-0.555 °C	-0.485 °C	CCN(CC)CCCC(C)Nc1nc(C)cc(Nc2ccc3nc(C)cc(N)c3c2)n1 (stereo not drawn) [NSC 23766]
-0.309 °C	-0.875 °C	-1.59 °C	-1.94 °C	O=c1cc(N2CCOCC2)oc2c(-c3cccc4c3sc3ccccc34)cccc12 [NU7441 (KU-57788)]
-0.332 °C	-0.841 °C	-0.366 °C	-1.08 °C	Nc1ncnc2c1c(-c1cccc(OCc3ccccc3)c1)cn2[C@H]1C[C@@H](CN2CCC2)C1 [NVP-AEW541]
-0.0503 °C	-2.05 °C	0.0902 °C	-0.914 °C	Cc1ccc(C(=O)Nc2cccc(C(F)(F)F)c2)cc1Nc1nc(-c2cccnc2)nc2c1cnn2C [NVP-BHG712]
-0.0846 °C	-0.913 °C	-0.602 °C	-0.999 °C	Fc1cc(-c2cccc3ncc(-c4cnn(C5CCNCC5)c4)nc23)cc(F)c1CN1CCOCC1 [NVP-BSK805 2HCl]
-0.283 °C	-0.84 °C	-0.37 °C	-0.593 °C	Cn1cc(-c2ccc3ncc(Cc4ccc5ncccc5c4)n3n2)cn1 [NVP-BVU972]
-5.14 °C	-19.8 °C	-2.84 °C	-9.25 °C	Cc1cn(-c2cc(NC(=O)c3ccc(C)c(Nc4nccc(-c5cccnc5)n4)c3)cc(C(F)(F)F)c2)cn1 [Nilotinib (AMN-107)]
-0.154 °C	-0.677 °C	-0.223 °C	-1.32 °C	COC(=O)c1ccc2c(c1)NC(=O)/C2=C(\Nc1ccc(N(C)C(=O)CN2CCN(C)CC2)cc1)c1ccccc1 [Nintedanib (BIBF 1120)]
